# Experimental data: ChEMBL document CHEMBL5120859, “Optimization of 4-arylthiophene-3-carboxylic acid derivatives as inhibitors of ANO1: Lead optimization studies toward their analgesic efficacy for inflammatory pain” (Eur J Med Chem, 2022)
# Activity calls are given as the source filed them. The calls are words filed in the database; no cut-off is given here.
# Legend:
# [1] = biological target: T1, Anoctamin-1 (Homo sapiens, UniProt Q5XXA6); assay: Inhibition of YFP tagged ANO1 (unknown origin) expressed in FRT cells incubated for 24 hrs by fluorescence plate reader assay; type: cell-based
# T1 sequence (Q5XXA6 whole entry): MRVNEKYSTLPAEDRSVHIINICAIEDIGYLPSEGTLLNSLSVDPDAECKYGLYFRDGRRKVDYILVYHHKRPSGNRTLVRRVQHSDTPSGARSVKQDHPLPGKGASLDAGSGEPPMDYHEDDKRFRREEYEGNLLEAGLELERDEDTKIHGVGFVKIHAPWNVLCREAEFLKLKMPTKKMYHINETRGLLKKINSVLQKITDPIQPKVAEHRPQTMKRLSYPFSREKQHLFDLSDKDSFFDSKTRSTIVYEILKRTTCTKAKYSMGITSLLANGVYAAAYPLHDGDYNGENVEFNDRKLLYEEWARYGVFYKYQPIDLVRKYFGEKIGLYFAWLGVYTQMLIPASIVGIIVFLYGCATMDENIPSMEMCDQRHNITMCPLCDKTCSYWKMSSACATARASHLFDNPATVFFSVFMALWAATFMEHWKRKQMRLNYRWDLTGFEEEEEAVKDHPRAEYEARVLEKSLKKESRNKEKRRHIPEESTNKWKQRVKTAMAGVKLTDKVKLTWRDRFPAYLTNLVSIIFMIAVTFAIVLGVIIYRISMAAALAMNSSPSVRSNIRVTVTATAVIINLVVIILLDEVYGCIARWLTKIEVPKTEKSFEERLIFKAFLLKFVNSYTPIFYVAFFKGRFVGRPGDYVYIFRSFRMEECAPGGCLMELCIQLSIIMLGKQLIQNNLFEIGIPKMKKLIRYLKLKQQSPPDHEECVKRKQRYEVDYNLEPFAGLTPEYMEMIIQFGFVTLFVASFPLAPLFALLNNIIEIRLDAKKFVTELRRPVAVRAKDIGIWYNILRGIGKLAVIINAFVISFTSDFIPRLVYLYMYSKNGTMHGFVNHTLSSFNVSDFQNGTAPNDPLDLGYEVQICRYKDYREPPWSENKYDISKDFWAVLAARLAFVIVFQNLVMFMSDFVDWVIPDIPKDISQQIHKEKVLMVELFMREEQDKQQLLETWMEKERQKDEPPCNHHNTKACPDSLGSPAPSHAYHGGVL
# [2] = tested on: Mus musculus; assay: Analgesic activity in C57BL/6 mouse model of formalin-induced allodynia assessed as reduction on foot licking pain response at 20 mg/kg,po measured after 10 mins; type: functional, organism-based
# [3] = biological target: T2, Anoctamin-1 (Homo sapiens) (UniProt Q5XXA6); assay: Inhibition of YFP tagged ANO1 (unknown origin) expressed in FRT cells at 30 uM incubated for 24 hrs by whole cell patch clamp electrophysiology relative to control; type: cell-based
# T2 sequence (whole entry): T1 sequence (Q5XXA6 whole entry)
# [4] = biological target: T3, Anoctamin-2 (Homo sapiens) (UniProt Q9NQ90); assay: Inhibition of human ANO2 expressed in HEK293 cells at 30 uM incubated for 5 mins by whole cell patch clamp electrophysiology relative to control; type: cell-based
# T3 sequence (whole entry): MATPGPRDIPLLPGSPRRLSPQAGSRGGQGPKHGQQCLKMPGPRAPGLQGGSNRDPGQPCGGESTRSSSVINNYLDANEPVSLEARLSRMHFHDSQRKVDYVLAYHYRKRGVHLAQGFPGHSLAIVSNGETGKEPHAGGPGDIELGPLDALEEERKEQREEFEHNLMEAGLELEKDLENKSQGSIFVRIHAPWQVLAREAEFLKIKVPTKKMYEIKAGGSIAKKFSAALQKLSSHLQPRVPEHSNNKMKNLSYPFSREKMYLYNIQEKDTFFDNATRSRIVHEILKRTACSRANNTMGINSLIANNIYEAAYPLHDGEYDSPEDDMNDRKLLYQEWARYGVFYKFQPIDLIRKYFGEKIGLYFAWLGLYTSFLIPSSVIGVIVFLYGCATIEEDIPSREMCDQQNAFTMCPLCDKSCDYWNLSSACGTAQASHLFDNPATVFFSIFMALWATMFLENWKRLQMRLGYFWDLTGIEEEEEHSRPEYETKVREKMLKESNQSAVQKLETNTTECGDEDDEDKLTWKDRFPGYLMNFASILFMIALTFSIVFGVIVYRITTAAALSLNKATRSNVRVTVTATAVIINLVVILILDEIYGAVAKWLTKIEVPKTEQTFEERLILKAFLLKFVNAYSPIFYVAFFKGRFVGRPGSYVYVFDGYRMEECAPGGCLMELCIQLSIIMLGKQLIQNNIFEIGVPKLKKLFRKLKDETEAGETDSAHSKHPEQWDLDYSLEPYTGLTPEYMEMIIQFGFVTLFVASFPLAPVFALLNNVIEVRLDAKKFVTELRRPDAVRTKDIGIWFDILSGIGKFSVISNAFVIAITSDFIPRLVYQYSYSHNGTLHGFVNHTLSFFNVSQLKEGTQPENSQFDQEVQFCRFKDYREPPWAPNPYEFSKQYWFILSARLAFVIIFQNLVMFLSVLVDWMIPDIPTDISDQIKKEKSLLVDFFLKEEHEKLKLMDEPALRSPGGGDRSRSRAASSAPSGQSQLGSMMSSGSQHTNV
# [5] = biological target: Voltage-dependent N-type calcium channel subunit alpha-1B (Homo sapiens) (UniProt Q00975); assay: Inhibition of Cav2.2 (unknown origin) at a holding potential +10 mV at 10 uM by whole cell patch clamp electrophysiology relative to control
# [6] = tested on: Mus musculus; assay: Analgesic activity in C57BL/6 mouse model of formalin-induced allodynia assessed as reduction on foot licking pain response at 40 mg/kg,po measured after 10 mins; type: functional, organism-based
# [7] = biological target: Voltage-gated potassium channel, KQT; KCNQ2(Kv7.2)/KCNQ3(Kv7.3) (Homo sapiens) (UniProt O43526+O43525); assay: Inhibition of KCNQ2/3 (unknown origin) at a holding potential -40 mV at 30 uM by whole cell patch clamp electrophysiology relative to control
# [8] = biological target: Transient receptor potential cation channel subfamily V member 1 (Homo sapiens) (UniProt Q8NER1); assay: Inhibition of TRPV1 (unknown origin) at a holding potential +100 mV at 10 uM by whole cell patch clamp electrophysiology relative to control
# [9] = biological target: Voltage-gated inwardly rectifying potassium channel KCNH2 (Homo sapiens, UniProt Q12809); assay: Cardiotoxicity against human ERG expressed in HEK293 cells by patch clamp assay; type: toxicity, cell-based
# [10] = Cytotoxicity against human HEK293 cells assessed as inhibition of cell growth at 30 uM incubated for 72 hrs by CCK-8 assay; type: toxicity, cell-based
# [11] = biological target: Transient receptor potential cation channel subfamily V member 1 (Homo sapiens) (UniProt Q8NER1); assay: Inhibition of TRPV1 (unknown origin) at a holding potential +100 mV at 30 uM by whole cell patch clamp electrophysiology relative to control
# Transient receptor potential cation channel subfamily V member 1 (Homo sapiens), sequence (Q8NER1 whole entry): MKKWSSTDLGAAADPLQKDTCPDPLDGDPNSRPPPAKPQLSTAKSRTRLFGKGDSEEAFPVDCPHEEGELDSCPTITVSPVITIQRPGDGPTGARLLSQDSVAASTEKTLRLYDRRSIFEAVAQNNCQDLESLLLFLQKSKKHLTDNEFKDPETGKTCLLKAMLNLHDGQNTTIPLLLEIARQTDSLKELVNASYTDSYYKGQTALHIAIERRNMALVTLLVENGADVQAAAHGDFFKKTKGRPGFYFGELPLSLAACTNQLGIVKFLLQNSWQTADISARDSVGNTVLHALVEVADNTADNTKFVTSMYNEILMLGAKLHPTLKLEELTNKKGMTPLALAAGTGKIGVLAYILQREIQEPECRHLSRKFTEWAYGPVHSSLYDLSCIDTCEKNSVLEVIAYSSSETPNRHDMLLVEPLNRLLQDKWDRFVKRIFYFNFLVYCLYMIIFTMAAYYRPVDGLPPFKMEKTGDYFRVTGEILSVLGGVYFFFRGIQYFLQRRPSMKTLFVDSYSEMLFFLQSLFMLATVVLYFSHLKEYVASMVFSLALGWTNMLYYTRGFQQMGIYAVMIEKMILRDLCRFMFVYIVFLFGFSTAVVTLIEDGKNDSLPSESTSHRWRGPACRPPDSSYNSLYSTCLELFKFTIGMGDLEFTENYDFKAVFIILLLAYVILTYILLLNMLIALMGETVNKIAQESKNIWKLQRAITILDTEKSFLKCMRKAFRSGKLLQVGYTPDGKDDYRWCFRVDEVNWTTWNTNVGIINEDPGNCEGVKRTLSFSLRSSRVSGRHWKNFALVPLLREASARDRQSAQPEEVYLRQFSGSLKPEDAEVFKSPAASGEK
# Voltage-dependent N-type calcium channel subunit alpha-1B (Homo sapiens), sequence (Q00975 whole entry, looked up, tested part not stated): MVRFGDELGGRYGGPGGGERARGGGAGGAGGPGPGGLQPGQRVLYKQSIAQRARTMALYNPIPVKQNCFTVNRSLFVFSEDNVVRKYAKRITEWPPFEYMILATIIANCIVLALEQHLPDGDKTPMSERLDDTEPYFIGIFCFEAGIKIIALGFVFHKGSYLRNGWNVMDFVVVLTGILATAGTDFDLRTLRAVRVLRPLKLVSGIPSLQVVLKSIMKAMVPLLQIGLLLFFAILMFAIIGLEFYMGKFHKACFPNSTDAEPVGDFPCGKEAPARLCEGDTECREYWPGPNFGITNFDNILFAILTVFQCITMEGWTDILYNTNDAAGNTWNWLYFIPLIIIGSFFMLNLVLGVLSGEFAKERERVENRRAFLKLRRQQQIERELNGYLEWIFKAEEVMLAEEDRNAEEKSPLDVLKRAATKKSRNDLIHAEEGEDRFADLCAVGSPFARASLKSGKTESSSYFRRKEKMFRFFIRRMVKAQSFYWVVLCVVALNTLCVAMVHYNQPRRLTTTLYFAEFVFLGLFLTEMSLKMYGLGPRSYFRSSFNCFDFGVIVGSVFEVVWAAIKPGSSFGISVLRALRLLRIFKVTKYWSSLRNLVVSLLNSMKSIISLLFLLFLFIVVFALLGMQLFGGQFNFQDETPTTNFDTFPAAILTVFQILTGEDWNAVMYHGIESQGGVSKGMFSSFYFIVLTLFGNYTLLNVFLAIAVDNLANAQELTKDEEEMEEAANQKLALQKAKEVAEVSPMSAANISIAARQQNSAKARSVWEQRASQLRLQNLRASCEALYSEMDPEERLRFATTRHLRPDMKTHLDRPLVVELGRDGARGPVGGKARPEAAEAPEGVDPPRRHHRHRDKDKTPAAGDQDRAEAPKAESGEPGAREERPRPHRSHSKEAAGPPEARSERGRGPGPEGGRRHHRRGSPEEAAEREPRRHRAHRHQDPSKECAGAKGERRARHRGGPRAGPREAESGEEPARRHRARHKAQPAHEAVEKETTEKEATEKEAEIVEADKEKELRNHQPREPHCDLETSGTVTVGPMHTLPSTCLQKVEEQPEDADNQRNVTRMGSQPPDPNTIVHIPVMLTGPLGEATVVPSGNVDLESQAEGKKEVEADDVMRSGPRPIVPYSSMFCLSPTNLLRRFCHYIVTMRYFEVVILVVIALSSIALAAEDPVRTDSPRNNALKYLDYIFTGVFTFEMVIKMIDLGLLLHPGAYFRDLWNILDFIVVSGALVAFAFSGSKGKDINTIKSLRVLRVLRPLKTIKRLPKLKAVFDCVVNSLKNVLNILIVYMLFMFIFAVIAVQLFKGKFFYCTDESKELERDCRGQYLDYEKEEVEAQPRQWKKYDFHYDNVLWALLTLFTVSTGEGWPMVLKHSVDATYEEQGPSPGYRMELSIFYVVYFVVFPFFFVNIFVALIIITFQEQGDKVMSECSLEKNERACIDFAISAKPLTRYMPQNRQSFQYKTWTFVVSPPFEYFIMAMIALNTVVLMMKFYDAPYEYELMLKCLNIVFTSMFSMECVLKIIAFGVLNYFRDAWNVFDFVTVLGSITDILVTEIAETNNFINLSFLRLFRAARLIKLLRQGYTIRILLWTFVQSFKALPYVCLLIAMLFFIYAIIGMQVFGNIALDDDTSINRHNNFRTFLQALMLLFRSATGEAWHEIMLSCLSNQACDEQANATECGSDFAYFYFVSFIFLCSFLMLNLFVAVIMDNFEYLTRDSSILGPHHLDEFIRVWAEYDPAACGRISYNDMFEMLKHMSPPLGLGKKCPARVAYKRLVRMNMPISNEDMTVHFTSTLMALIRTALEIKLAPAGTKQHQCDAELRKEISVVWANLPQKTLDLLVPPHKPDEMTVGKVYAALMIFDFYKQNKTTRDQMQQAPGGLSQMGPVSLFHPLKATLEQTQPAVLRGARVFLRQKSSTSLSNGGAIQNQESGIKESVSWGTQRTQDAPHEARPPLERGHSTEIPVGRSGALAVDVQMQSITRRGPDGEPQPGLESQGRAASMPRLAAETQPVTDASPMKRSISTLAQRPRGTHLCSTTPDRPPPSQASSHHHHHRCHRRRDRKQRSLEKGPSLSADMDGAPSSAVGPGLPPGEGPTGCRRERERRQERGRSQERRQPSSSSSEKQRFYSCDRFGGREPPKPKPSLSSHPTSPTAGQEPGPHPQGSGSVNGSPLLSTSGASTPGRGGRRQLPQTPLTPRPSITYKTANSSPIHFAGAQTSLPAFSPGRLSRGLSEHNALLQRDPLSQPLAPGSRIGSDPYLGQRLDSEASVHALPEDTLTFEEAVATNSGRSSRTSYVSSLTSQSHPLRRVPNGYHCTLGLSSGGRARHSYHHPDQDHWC
# Voltage-gated inwardly rectifying potassium channel KCNH2, sequence (Q12809 whole entry): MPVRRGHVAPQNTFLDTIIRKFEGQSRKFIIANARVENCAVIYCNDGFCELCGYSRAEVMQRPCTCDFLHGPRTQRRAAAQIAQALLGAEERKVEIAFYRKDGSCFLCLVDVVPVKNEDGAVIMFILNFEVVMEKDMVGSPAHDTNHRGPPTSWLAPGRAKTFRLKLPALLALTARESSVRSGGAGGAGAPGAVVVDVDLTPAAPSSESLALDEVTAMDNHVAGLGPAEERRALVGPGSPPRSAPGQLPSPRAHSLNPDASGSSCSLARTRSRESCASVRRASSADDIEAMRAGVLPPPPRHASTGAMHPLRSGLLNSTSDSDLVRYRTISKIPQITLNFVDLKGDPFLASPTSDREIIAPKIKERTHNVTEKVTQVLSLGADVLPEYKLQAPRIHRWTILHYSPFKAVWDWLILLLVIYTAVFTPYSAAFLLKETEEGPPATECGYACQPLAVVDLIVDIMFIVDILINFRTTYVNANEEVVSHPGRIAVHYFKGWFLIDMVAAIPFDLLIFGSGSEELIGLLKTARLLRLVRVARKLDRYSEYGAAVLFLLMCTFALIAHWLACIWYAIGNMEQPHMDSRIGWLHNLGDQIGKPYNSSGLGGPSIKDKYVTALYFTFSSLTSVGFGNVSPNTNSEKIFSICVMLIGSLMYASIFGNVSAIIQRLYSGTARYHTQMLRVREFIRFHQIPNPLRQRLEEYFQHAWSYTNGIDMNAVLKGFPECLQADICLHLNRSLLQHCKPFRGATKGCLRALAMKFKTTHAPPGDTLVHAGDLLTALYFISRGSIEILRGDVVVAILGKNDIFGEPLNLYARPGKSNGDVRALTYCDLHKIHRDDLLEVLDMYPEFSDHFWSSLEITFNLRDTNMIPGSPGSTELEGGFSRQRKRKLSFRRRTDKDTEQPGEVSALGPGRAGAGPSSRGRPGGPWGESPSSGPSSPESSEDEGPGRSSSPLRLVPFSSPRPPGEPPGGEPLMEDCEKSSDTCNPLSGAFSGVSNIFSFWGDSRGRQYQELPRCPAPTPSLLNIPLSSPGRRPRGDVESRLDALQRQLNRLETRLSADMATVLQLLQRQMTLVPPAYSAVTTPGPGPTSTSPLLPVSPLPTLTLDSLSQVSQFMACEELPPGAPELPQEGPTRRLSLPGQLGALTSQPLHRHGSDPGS
Compound,IC50 [1] [µM],also measured
O=C(Nc1scc(-c2ccc(Cl)cc2)c1C(=O)O)c1cc(Cl)ccc1I,12,
O=C(O)c1c(-c2ccc(Cl)cc2)csc1NC(=O)c1cccc2cccnc12,> 300,
O=C(Nc1scc(-c2ccc(Cl)cc2)c1C(=O)O)c1cccc2c1OCO2,> 100,
O=C(Nc1scc(-c2ccc(Cl)cc2)c1C(=O)O)c1cc(Cl)ccc1Cl,0.27,
CC(C)C[C@H](CN)CC(=O)O,,Activity [2]: Active
COc1ccc(Cl)c(C(=O)Nc2scc(-c3ccc(Cl)cc3)c2C(=O)O)c1,35.9,
O=C(Nc1scc(-c2ccc(Cl)cc2)c1C(=O)O)c1ccc(Cl)cc1Cl,1.24,
Cc1ccc(Cl)cc1C(=O)Nc1scc(-c2ccc(Cl)cc2)c1C(=O)O,> 100,
O=C(Nc1scc(-c2ccc(Cl)cc2)c1C(=O)O)c1cc(I)ccc1Cl,78.9,
O=C(Nc1scc(-c2ccc(Cl)cc2)c1C(=O)O)c1cnccn1,4.01,
O=C(Nc1scc(-c2ccc(Cl)cc2)c1C(=O)O)c1cc(F)ccc1Br,0.96,
O=C(Nc1scc(-c2ccc(Cl)cc2)c1C(=O)O)c1cc(Cl)ccc1C(F)(F)F,1.59,
CC(=O)Oc1ccccc1C(=O)Nc1ncc([N+](=O)[O-])s1 [NITAZOXANIDE],0.424,
Cc1ccsc1C(=O)Nc1scc(-c2ccc(Cl)cc2)c1C(=O)O,3.12,
O=C(Nc1scc(-c2ccc(Cl)cc2)c1C(=O)O)c1ccccc1OC(F)(F)F,5.66,
O=C(Nc1ccc([N+](=O)[O-])cc1Cl)c1cc(Cl)ccc1O [NICLOSAMIDE],0.028,
O=C(Nc1scc(-c2ccc(Cl)cc2)c1C(=O)O)c1cccnc1,70.6,
COc1ccc(Cl)cc1C(=O)Nc1scc(-c2ccc(Cl)cc2)c1C(=O)O,> 100,
O=C(Nc1scc(-c2ccc(Cl)cc2)c1C(=O)O)c1cc(C(F)(F)F)ccc1Cl,36.9,
O=C(O)c1c(-c2ccc(Cl)cc2)csc1NC(=O)c1cccc2ncccc12,6.99,

Compound,IC50 [1] [µM],also measured
COc1ccccc1/N=N/C(=O)COc1ccc(Cl)cc1C,1.07,inhibition [3]: 42.7%; inhibition [4]: 12.6%
CADMIUM DICHLORIDE,,inhibition [5]: 91.4%
O=C(Nc1scc(-c2ccc(Cl)cc2)c1C(=O)O)c1cccc2c1OCCO2,> 100,
O=C(Nc1scc(-c2ccc(Cl)cc2)c1C(=O)O)c1cccc(Cl)c1Cl,1.94,
O=C(Nc1scc(-c2ccc(Cl)cc2)c1C(=O)O)c1c(Cl)cccc1Cl,12.1,
O=C(Nc1scc(-c2ccc(Cl)cc2)c1C(=O)O)c1cc(Cl)ccc1F,8.77,
O=C(Nc1scc(-c2ccc(Cl)cc2)c1C(=O)O)c1cc(Br)ccc1F,59.8,
Cc1ccc(Cl)c(C(=O)Nc2scc(-c3ccc(Cl)cc3)c2C(=O)O)c1,1.79,
CC(C)(C)C1CCc2c(sc(NC(=O)c3ccco3)c2C(=O)O)C1 (configuration not stated),,inhibition [4]: 71.2%; Activity [6]: Active
O=C(Nc1scc(-c2ccc(Cl)cc2)c1C(=O)O)c1cc(I)ccc1F,4.49,
CC(C)Cc1ccc(C(C)C(=O)O)cc1 (configuration not stated),,Activity [6]: Active
O=C(O)c1c(-c2ccc(Cl)cc2)csc1NC(=O)c1cccc2ccccc12,0.79,
CCOC(=O)Nc1ccc(NCc2ccc(F)cc2)cc1N,,inhibition [7]: 100%
O=C(Nc1scc(-c2ccc(Cl)cc2)c1C(=O)O)c1ccncc1,6.27,
O=C(Nc1scc(-c2ccc(Cl)cc2)c1C(=O)O)c1cc(F)ccc1Cl,6.55,
COc1cc(CNC(=O)CCCC/C=C/C(C)C)ccc1O,,inhibition [8]: 96.7%
O=C(Nc1scc(-c2ccc(Cl)cc2)c1C(=O)O)c1cc(Cl)ccc1Br,0.029,"inhibition [3]: 32.1%; inhibition [4]: 92.6%; IC50 [9]: > 30 µM; inhibition at 72 h, 30 µM [10]: < 10%; inhibition [11]: 26.4%"
O=C(Nc1scc(-c2ccc(Cl)cc2)c1C(=O)O)c1cc(Br)ccc1Cl,83.5,
O=C(Nc1scc(-c2ccc(Cl)cc2)c1C(=O)O)c1cc(F)ccc1I,2.21,
